# Reference: patent publication US6410740B1, “Heterocyclylmethyl-substituted pyrazol derivatives” (Bayer Aktiengesellschaft, priority 1996, dated 2002)
# Where two headings read alike, the source gives them in different places.
# Legend:
# [1] = system: rabbit aortic rings precontracted with phenylephrine; assay: Vessel-relaxing action in vitro on isolated aortic rings precontracted with phenylephrine; conditions: Oryctolagus cuniculus, rabbit aorta rings, phenylephrine contraction
# Protocol: Vessel-relaxing Action in vitro
# Rings 1.5 mm wide of an aorta isolated from a rabbit are introduced individually, under pretension, in 5 ml organ baths with Krebs-Henseleit solution warmed to 37° C. and gassed with carbogen. The contraction force is amplified and digitalized and recorded in parallel on a line recorder. To generate a contraction, phenylephrine is added cumulatively to the bath in an increasing concentration.
# (§1) After several control cycles, the substance to be investigated is investigated in each further pass in each case in an increasing dosage, and a comparison is made with the level of the contraction achieved in the last preliminary pass. The concentration necessary to reduce the level of the control value by 50% (IC50) is calculated from this. The standard application volume is 5 μl.
# as §1, with “this.” for “this. The standard application volume is 5 μl.”
# The standard application volume is 5 μl.
# [2] = molecular target: T1, soluble guanylate cyclase (Sus scrofa, UniProt A0A4X1U7N1+A0ACM8Q7I6); assay: Stimulation of soluble guanylate cyclase in primary endothelial cells (intracellular cGMP, radioimmunological); format: cell-based; conditions: 10 min, test substance 1 μM, 10-minute incubation, primary pig aortic endothelial cells, with or without SNP 1 μM (not stated which), read-out: % increase in cGMP
# T1 construct: endogenous in cells; host or cells: primary endothelial cells from pig aorta
# T1 sequence (A0A4X1U7N1 1-619): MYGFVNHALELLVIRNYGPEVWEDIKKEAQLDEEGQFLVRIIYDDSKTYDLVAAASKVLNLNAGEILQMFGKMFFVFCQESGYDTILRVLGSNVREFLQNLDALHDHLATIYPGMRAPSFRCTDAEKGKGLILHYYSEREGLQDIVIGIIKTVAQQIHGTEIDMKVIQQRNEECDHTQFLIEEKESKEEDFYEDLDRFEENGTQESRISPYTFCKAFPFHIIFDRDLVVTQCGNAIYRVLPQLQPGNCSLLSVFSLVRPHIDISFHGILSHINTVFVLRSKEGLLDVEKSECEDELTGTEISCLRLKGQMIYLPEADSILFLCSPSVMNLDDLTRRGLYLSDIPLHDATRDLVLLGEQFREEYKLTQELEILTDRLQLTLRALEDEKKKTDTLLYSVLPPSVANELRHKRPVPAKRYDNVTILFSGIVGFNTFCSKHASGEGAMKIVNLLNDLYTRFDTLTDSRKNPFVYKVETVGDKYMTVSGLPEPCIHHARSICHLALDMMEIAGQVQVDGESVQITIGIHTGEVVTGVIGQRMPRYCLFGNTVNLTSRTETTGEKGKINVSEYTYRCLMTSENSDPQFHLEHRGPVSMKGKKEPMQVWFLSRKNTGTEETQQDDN
# T1 sequence (A0ACM8Q7I6 1-688): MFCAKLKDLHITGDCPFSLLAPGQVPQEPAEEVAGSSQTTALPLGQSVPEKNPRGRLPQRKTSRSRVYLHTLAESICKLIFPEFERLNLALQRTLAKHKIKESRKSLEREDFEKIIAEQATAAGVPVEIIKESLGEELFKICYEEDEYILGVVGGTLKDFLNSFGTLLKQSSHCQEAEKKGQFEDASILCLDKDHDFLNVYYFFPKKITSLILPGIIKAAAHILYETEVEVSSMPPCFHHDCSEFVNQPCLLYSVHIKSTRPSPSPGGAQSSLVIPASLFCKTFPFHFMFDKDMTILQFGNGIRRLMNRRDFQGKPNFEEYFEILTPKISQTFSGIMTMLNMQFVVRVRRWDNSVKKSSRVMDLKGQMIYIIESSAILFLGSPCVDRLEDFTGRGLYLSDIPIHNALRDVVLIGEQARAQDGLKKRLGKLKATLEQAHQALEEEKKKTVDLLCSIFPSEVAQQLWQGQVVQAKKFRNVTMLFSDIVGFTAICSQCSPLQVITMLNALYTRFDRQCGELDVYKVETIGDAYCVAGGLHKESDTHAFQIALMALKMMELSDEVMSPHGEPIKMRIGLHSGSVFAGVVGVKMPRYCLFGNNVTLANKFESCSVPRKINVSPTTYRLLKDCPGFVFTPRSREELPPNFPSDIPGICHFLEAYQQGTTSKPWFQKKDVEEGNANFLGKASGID
# Protocol: Stimulation of Soluble Guanylate Cyclase in Primary Endothelial Cells
# (§2) Primary endothelial cells were isolated from pig aortas by treatment with collagenase solution. The cells were then cultured in a culture medium until confluence was reached. For the investigations, the cells were subjected to passaging, sown in cell culture plates and subcultured until confluence was reached. To stimulate the endothelial guanylate cyclase, the culture medium was suctioned off and the cells were washed once with Ringer's solution and incubated in stimulation buffer with or without an NO donor (sodium nitroprusside, SNP, 1 μM). Thereafter, the test substances (final concentration 1 μM) were pipetted onto the cells. At the end of the 10-minute incubation period, the buffered solution was suctioned off and the cells were lysed at −20° C. for 16 hours. The intracellular cGMP was then determined radioimmunologically.
# as §2, with “sucked” for “suctioned”
# as §2, with “without” for “without an”, “buffer” for “buffered”
# [3] = system: human platelets stimulated with collagen; assay: Inhibition of platelet aggregation in vitro (collagen-induced, platelet-rich plasma); format: cell-based; conditions: human PRP, 37° C.
# Protocol: Inhibition of Platelet Aggregation in vitro
# To determine the platelet aggregation-inhibiting action, blood from healthy subjects of both sexes was used. One part of 3.8% strength aqueous sodium citrate solution was admixed to 9 parts of blood as an anticoagulant. Platelet-richer citrate plasma (PRP) is obtained from this blood by means of centrifugation.
# (§3) For the investigations, 445 μl of PRP and 5 μl of the active compound solution were preincubated in a water-bath at 37° C. The platelet aggregation was then determined in an aggregometer at 37° C. using the turbidometric method. For this, 50 μl of collagen, an aggregation-inducing agent, were added to the preincubated sample and the change in optical density was recorded. For the quantitative evaluation, the maximum aggregation response was determined and the percentage inhibition compared with the control was calculated therefrom.
# Inhibition of Platelet Pggregation in vitro
# as §3, with “For these investigations, 445” for “For the investigations, 445”
Structure (SMILES),activation at 1 µM ([2]; embodiment IV),"IC50 ([1]; iv, embodiment IV)",further results
OCc1cccc(-c2nn(Cc3ccccc3F)c3ccccc23)n1 [II-62],,,IC50 ([1]; embodiment II): 13 µM; melting point: 99 °C
"OCc1cnc(-c2nn(Cc3ccccc3)c3ccccc23)o1 [III-71, 1-Benzyl-3-(5-hydroxymethyl-oxazol-2-yl)-indazole]",,,activation at 1 µM ([2]; embodiment III): 315%; IC50 ([1]; embodiment III): 5 µM; IC50 ([3]; embodiment III): 50 µg/mL
"CCOC(=O)c1csc(-c2nn(Cc3ccccc3)c3ccccc23)n1 [III-72, Ethyl 2-(1-benzyl-indazol-3-yl)-thiazole-4-carboxylate]",,,IC50 ([3]; embodiment III): 1 µg/mL
"N#Cc1ccccc1Cn1nc(-c2ccc(CO)o2)c2ccccc21 [IV-136, 1-(^2-Cyanobenzyl)-3-(5-hydroxymethylfuran-2-yl)-indazole]",> 1000%,7.2 µM,IC50 ([3]; embodiment IV): 30 µg/mL
OCc1coc(-c2nn(Cc3ccccc3)c3ccccc23)c1 [IV-164],289%,12 µM,
OCc1ccc(-c2nn(Cc3c(F)cccc3F)c3ccccc23)o1 [IV-165],256%,29 µM,
Cc1cc(-c2nn(Cc3ccccc3)c3ccccc23)oc1CO [IV-179],921%,11 µM,
"Cc1nc(-c2nn(Cc3ccccc3F)c3ccccc23)oc1CN1C(=O)c2ccccc2C1=O [Process Example 11, 2-[1-(2-fluorobenzyl)-indazole-3-yl]-4-methyl-5-(N-phthalimidomethyl)-oxazole]",,,melting point: 175 to 177 °C
